The text below walks through data of patent US20070179060A1, “6-(Poly-substituted aryl)-4-aminopicolinates and their use as herbicides” (priority 2006, published 2007).

Holding throughout (assay type): in vivo
For experiment [1], the system named is Matricaria chamomilla. The experiment in a line: Postemergence herbicidal activity of mixtures in cereal crops. The following applies: after 3 weeks. Here is the method:
(§1) Seeds of the desired test plant species were planted and reared as described in “Evaluation of Postemergence Herbicidal Safening in Cereal Crops” (section 37).
(§2) Treatments consisted of compound (as listed in Tables 6 and 7), fluroxypyr methylheptyl ester (MHE), and clopyralid monoethanolamine (MEA) salt alone and in combination. Weighed amounts were placed in 25 mL glass vials and dissolved in a volume of 97:3 v/v acetone/DMSO to obtain 4.5 mg ai/mL stock solutions. […] The concentrated stock solutions were diluted to 1.5 mg ai/mL with the addition of 2 volumes of an aqueous mixture containing acetone, water, isopropyl alcohol, DMSO, Agri-dex crop oil concentrate, and Triton® X-77 surfactant in a 64.7:26.0:6.7:2.0:0.7:0.01 v/v ratio. A dilution solution was prepared by mixing 1 volume of 97:3 v/v acetone/DMSO and 2 volumes of an aqueous mixture containing acetone, water, isopropyl alcohol, DMSO, Agri-dex crop oil concentrate, and Triton® X-77 surfactant in a 64.7:26.0:6.7:2.0:0.7:0.01 v/v ratio. Compound requirements are based upon a 12 mL application volume at a rate of 187 L/ha. Spray solutions of fluroxypyr MHE, clopyralid MEA, and experimental compound mixtures were prepared by adding the stock solutions to the appropriate amount of dilution solution to form 12 mL spray solution with active ingredients in two- and three-way combinations. Formulated compounds were applied to the plant material with an overhead Mandel track sprayer equipped with a 8002E nozzles calibrated to deliver 187 L/ha over an application area of 0.503 square meters at a spray height of 18 inches (43 cm) above average plant canope. Control plants were sprayed in the same manner with the solvent blank.
(§3) The treated plants and control plants were placed in a greenhouse as described above and watered by sub-irrigation to prevent wash-off of the test compounds. After 3 weeks the condition of the test plants as compared with that of the control plants was determined visually and scored on a scale of 0 to 100 percent where 0 corresponds to no injury and 100 corresponds to complete kill.
(§4) Colby's equation was used to determine the herbicidal effects expected from the mixtures (Colby, S. R. 1967. Calculation of the synergistic and antagonistic response of herbicide combinations. Weeds 15:20-22.).
(§5) The following equation was used to calculate the expected activity of mixtures containing two active ingredients, A and B: Expected=A+B−(A×B/100) • A=observed efficacy of active ingredient A at the same concentration as used in the mixture. • B=observed efficacy of active ingredient B at the same concentration as used in the mixture.
(§6) The following equation was used to calculate the expected activity of mixtures containing three active ingredients, A, B, and C: Expected=A+B+C−(A×B+B×C+A×C)/100+(A×B×C)/10000 • A=observed efficacy of active ingredient A at the same concentration as used in the mixture. • B=observed efficacy of active ingredient B at the same concentration as used in the mixture. • C=observed efficacy of active ingredient C at the same concentration as used in the mixture.

Experiment [2] has as its system Hordeum vulgare (winter barley). The description is as above. Particulars: after 3 weeks. Here is the method:
as §1, §2, §3, §4, §5, §6

Experiment [3] deals with Triticum aestivum (spring wheat). Described as above. The following applies: after 3 weeks. Here is the method:
as §1, §2, §3, §4, §5, §6

Experiment [4] has as its system Galium aparine. The experiment in a line: Postemergence herbicidal safening in cereal crops. The following applies: Table 5, applied alone, after 3 weeks. Here is the method: (§7) Seeds of the desired test plant species were planted in Sun Gro MetroMix® 306 planting mixture, which typically has a pH of 6.0 to 6.8 and an organic matter content of about 30 percent, in plastic pots with a surface area of 103.2 square centimeters. When required to ensure good germination and healthy plants, a fungicide treatment and/or other chemical or physical treatment was applied. The plants were grown for 7-36 days in a greenhouse with an approximate 14 hour photoperiod which was maintained at about 18° C. during the day and 17° C. during the night. Nutrients and water were added on a regular basis and supplemental lighting was provided with overhead metal halide 1000-Watt lamps as necessary. The plants were employed for testing when they reached the second or third true leaf stage. Treatments consisted of compound 42 and cloquintocet-mexyl alone and in combination. Weighed amounts were placed in 25 mL glass vials and dissolved in a volume of 97:3 v/v acetone/DMSO to obtain 9 mg ai/mL stock solutions. […] A dilution solution was prepared by mixing 1 volume of 97:3 v/v acetone/DMSO and 2 volumes of an aqueous mixture containing acetone, water, isopropyl alcohol, DMSO, Agri-dex crop oil concentrate, and Triton® X-77 surfactant in a 64.7:26.0:6.7:2.0:0.7:0.01 v/v ratio. Compound requirements are based upon a 12 mL application volume at a rate of 187 L/ha. […] Formulated compounds were applied to the plant material with an overhead Mandel track sprayer equipped with a […] nozzles calibrated to deliver 187 L/ha over an application area of 0.503 square meters at a spray height of 18 inches (43 cm) above average plant canopy height. Control plants were sprayed in the same manner with the solvent blank. The treated plants and control plants were placed in a greenhouse as described above and watered by sub-irrigation to prevent wash-off of the test compounds. After 3 weeks the condition of the test plants as compared with that of the untreated plants was determined visually and scored on a scale of 0 to 100 percent where 0 corresponds to no injury and 100 corresponds to complete kill. Colby's equation was used to determine the herbicidal effects expected from the mixtures (Colby, S. R. 1967. Calculation of the synergistic and antagonistic response of herbicide combinations. Weeds 15:20-22.). The following equation was used to calculate the expected activity of mixtures containing two active ingredients, A and B: Expected=A+B-(A×B/100) • A=observed efficacy of active ingredient A at the same concentration as used in the mixture. • B=observed efficacy of active ingredient B at the same concentration as used in the mixture.

Experiment [5] deals with Hordeum vulgare (winter barley). Put plainly: Postemergence herbicidal safening in cereal crops. Particulars: Table 5, applied alone, after 3 weeks. Here is the method: as §7
Experiment [6] deals with Triticum aestivum (spring wheat). The experiment in a line: Postemergence herbicidal safening in cereal crops. Particulars: Table 5, applied alone, after 3 weeks. Here is the method: as §7
Experiment [7] concerns Papaver rhoeas. The experiment in a line: Postemergence herbicidal safening in cereal crops. The following applies: Table 5, applied alone, after 3 weeks. Here is the method:
as §7

Setting [8] is: Table 7, applied alone, 35 g ai/ha.
[9] abbreviates: Table 7, applied alone, 70 g ai/ha.
Where [10] appears, read: Table 6, applied alone, 35 g ai/ha.

For the compound `COC(=O)c1nc(-c2ccc(Cl)c(OC)c2F)cc(N)c1Cl` [Compound 42, 4-Amino-3-chloro-6-(4-chloro-2-fluoro-3-methoxyphenyl)pyridine-2-carboxylic acid methyl ester], the “% Control MATCH Ob” value in experiment [1] (setting [8]) is 50%; in experiment [1] (setting [9]) it was 60%. Also, the “% Control HORVW Ob” value in experiment [2] (setting [8]) came out at 25%; in experiment [2] (setting [9]), 30%; in experiment [5] (35 g ai/ha) it was 0%; in experiment [5] (70 g ai/ha) it was 15%. In addition, the “% Control TRZAS Ob” value is reported as 30% in experiment [3] (setting [8]), 45% in experiment [3] (setting [9]), 35% in experiment [6] (35 g ai/ha) and 40% in experiment [6] (70 g ai/ha). Besides, the “% Control GALAP Ob” value was 99% in experiment [4] (35 g ai/ha) and 100% in experiment [4] (70 g ai/ha). Moreover, the “% Control PAPRH Ob” value in experiment [7] (35 g ai/ha) and in experiment [7] (70 g ai/ha) was 100% each time.
Turning to `COC(=O)c1nc(-c2c(F)cc(Cl)c(OC)c2F)cc(N)c1Cl` [Compound 58, 4-Amino-3-chloro-6-(4-chloro-2,6-difluoro-3-methoxyphenyl)pyridine-2-carboxylic acid, methyl ester], in experiment [1] (setting [10]), the “% Control MATCH Ob” value is 0%. Besides, the “% Control HORVW Ob” value in experiment [2] (setting [10]) came to 15%. Besides, the “% Control TRZAS Ob” value in experiment [3] (setting [10]) came to 35%.
